According to PMC3134853, “In Vitro and In Vivo Study of Poly(ethylene glycol) Conjugated Ibuprofen to Extend the Duration of Action” (Scientia Pharmaceutica, 2011):
Converted amounts (≈) assume the structure as drawn. Where two headings read alike, the source gives them in different places.

How the values were obtained:
[1] = Determination of drug solubility (distilled water and phosphate buffer pH 7.4); format: physicochemical; conditions: UV 222 nm
Procedure: This suspension was stirred at room temperature for 24 hours with a Rota spin test tube Roter. After that the containers (test tubes) were left overnight for saturation. Then these saturated solutions were centrifuged at 10000 rpm the help of macro centrifuge and the supernatant was filtered via Whatman filter paper. The concentration of Ibuprofen was determined spectrophotometrically at 222 nm.

[2] = test system: carrageenan-induced paw edema in rats; experiment: Carrageenan-induced paw edema (anti-inflammatory activity); format: in vivo; conditions: Wistar rats, oral, mean ± SEM
Procedure: All the animals were obtained from the animal house of the Department of Pharmacology, […] College of Pharmacy, Mandsaur and its animal facility is approved by […]. No. 918/ac/05/CPCSEA). The experimental protocols for the same have been approved by Institutional Animal Ethics Committee. The analgesic activity was carried out on Swiss albino mice by the Siegmund et al. method; anti-inflammatory activity of the compounds was carried out on Wistar rats by the Winter et al. method. The anti-inflammatory activity was evaluated using carrageenan-induced paw edema on rat method. To evaluate the anti-inflammatory activity of the conjugates 4 groups (n = 6) of Wistar rats (150-200 g) were examined. […] A stock solution of 0.2, 0.52 and 2.14 mg ml^-1 was prepared as a homogeneous suspension in aqueous solution of sodium CMC (0.5% w/v) and each animal received 2.0- 2.2 ml of the respective drugs orally. Thirty minutes after administration of drugs, each rat received a subplanter injection of 0.1 ml of 1% carrageenan solution in its left hind paw. The swelling volume of the paw was measured before (time 0) and at 0.5, 1, 2, 3, 4, 24 h after the carrageenan injection. The measurement of the hind paw volume was carried out using an Ugo Basile Plethysmometer before any treatment (Vo) and in any interval (Vt) after the administration of the drugs. The percentage increase in the paw volume was calculated from the normal paw volume. The percentage of swelling inhibition was calculated using: Inhibition (%) = (Vt - Vo)control - (Vt - Vo)treated/(Vt - Vo)×100 (Vt and Vo relates to the average volume in the hind paw of the rats (n = 6) before any treatment and after anti-inflammatory agent treatment, respectively.

[3] = oral administration; cited from earlier work
[4] = test system: acetic acid induced writhing in mice; experiment: Writhing induced by acetic acid (analgesic activity); format: in vivo, Swiss albino mice; conditions: oral, 3 h prior to acetic acid, Ibuprofen 20 mg/kg or molecular equivalent dose of conjugate
Procedure: Analgesic activity was carried out by using acetic acid induced writhing method in Swiss albino mice (25–30 g) of either sex. A 1% v/v solution of acetic acid was used to induce writhing. Test compounds were administered orally 3 h prior to acetic acid injection. Number of writhing for 10 min in control and test compounds were counted and compared. […] Acetic acid was administered intraperitoneally 1 ml/100 g body weight of the animal. Analgesic activity was measured as percent decrease in writhing in comparison to control. The percent Inhibition was calculated using the following equation: % Inhibition = 100 − number of writhings in test/number of writhings in control×100
Analgesic activity was carried out by using acetic acid induced writhing method in Swiss albino mice (25–30 g) of either sex. A 1% v/v solution of acetic acid was used to induce writhing. Test compounds were administered orally 3 h prior to acetic acid injection.

[5] = cited from earlier work

## CC(C)Cc1ccc(C(C)C(=O)O)cc1 (centres unmarked) [Ibuprofen, 2-(4-iso-butylphenyl)-propanoic acid]
[1]; distilled water, room temperature, read-out: Solubility in distilled water
  solubility at 24 h: 10.6 µg/mL (≈ 51.2 µM)
[1]; phosphate buffer pH 7.4, room temperature, read-out: Solubility in phosphate buffer (pH 7.4)
  solubility at 24 h: 25.2 µg/mL (≈ 122 µM)
[2]; 1 hr, the values are: paw edema volume
  Paw edema volume: 0.33 ± 0.013 mL
[2]; 2 hr, the values are: paw edema volume
  Paw edema volume: 0.48 ± 0.017 mL
[2]; 3 hr, the values are: paw edema volume
  Paw edema volume: 0.38 ± 0.013 mL
[2]; 4 hr, the values are: paw edema volume
  Paw edema volume: 0.24 ± 0.009 mL
[2]; 8 hr, the values are: paw edema volume
  Paw edema volume: 0.15 ± 0.01 mL
[2]; 24 hr
  Paw edema volume: 0.03 ± 0.013^ns
[3]
  Time to reach maximal plasma concentration: ≤ 2 h
[4]
  Percent inhibition (decrease) in writhing number versus control: 59.61%
[5]
  Solubility in water (in words): poorly soluble in water
